Measured values reported in patent US20250057864A1, “COMPOSITION FOR IMPROVING EXERCISE PERFORMANCE COMPRISING GYPENOSIDE COMPOUND AS ACTIVE INGREDIENT” (BTC CORPORATION, priority 2022, published 2025).

Legend:
ICR mice = experiment: Weight of liver and muscles; format: in vivo; settings: 6 weeks
Procedure: (§1) After an acclimatization period of 1 week, healthy animals were selected and divided into 6 groups according to the randomized block design. The animals were divided into (G1) a non-exercise control group, (G2) a non-exercise+7 mg/kg body weight (BW) Example 1 group, (G3) a non-exercise+7 mg/kg BW Example 2 group, (G4) a non-exercise+7 mg/kg BW Example 3 group, (G5) a non-exercise+7 mg/kg BW Example 4 group, (G6) an exercise control group, (G7) an exercise+7 mg/kg BW Example 1 group, (G8) an exercise+7 mg/kg BW Example 2 group, (G9) an exercise+7 mg/kg BW Example 3 group, (G10) an exercise+7 mg/kg BW Example 4 group, and (G11) an exercise+75 mg/kg BW Cr dose group. Each test group consisted of 10 animals.
Before sacrificing, the experimental animal was anesthetized using an anesthetic prepared by dilution of tribromoethanol with tertiary amyl alcohol and blood was taken from the eye socket. The blood was placed in a serum-separating tube (Becton Dickinson) and left at room temperature for 30 minutes, centrifuged at 5,000 rpm for 10 minutes to separate the serum, and kept at −70° C. until analysis. After the blood sampling, the experimental animal was sacrificed and the liver and skeletal muscles [quadriceps femoris muscle (QF), gastrocnemius muscle (GA), soleus muscle (SOL), and extensor digitorum longus muscle (EDL)] were extracted. Their weight was measured after rinsing with cold physiological saline and removing excess water with filter paper. A portion of the soleus muscle (SOL) was fixed with 4% paraformaldehyde (PFA) and then embedded in paraffin for histoimmunological staining. Also, total RNA was isolated from a portion of the soleus muscle and subjected to real-time RT-PCR. Proteins were isolated from a portion of the gastrocnemius muscle (GA) and subjected to western blot. The remaining tissue was kept at −70° C. until analysis.
After the end of the test, the weight of the muscles and liver of the experimental animals was measured.
Since the body weight of the experimental animals was decreased due to exercise and the administration of the test substances, the relative weight of the muscles and liver per 100 g of body weight was calculated and shown in Table 23.

[1] = system: MHC1, MHC7, MHC2A, MHC2B, PGC-1α, PKB, FNDC5 in C2C12 cells; experiment: mRNA expression of genes related with muscular strength type in C2C12 cells; format: cell-based, mice; settings: C2C12, 0.36 μg/mL (Cr 5 μg/mL), control G1 = 1.00
Procedure: C2C12 cells were dispensed into a 6-well plate at 2×10^5 cells/well and stabilized for 24 hours. In order to investigate the effect of each test substance on muscle cell differentiation, each test substance was added to the myocyte differentiation medium. The cells were cultured for 4 days (mRNA analysis) or 7 days (protein analysis) after exchanging the cell culture medium with the myocyte differentiation medium treated with each test substance, as shown in Table 2.
C2C12 cells were dispensed into a 6-well plate at 2×10^5 cells/well and stabilized for 24 hours. The cells were cultured for 2 or 4 days after replacing the cell culture with a myocyte differentiation medium containing the test substance. After collecting the cells, total RNA was isolated using an RNeasy Plus Mini kit (QIAGEN), and quantified using a micro-volume spectrophotometer (BioSpec-nano, Shimadzu). RNAs with an OD260/280 value greater than 1.8 were used for experiment.
After obtaining cDNA from the total RNA (2 μg) using a HyperScript™ RT master mix kit (GeneAll Biotechnology), real-time PCR was performed using a Rotor-Gene 300 PCR kit (Corbett Research) and a Rotor-Gene™ SYBR Green kit (QIAGEN). Quantitative analysis of the gene expression was performed using the Rotor-Gene 6000 Series System Software program (Corbett Research).
The effect of the compositions according to Examples 1 to 4 on the mRNA expression of MHC1, MHC7, MHC2A and MHC2B, which are responsible for muscular strength type, was investigated.
The result of investigating the effect of the compositions according to Examples 1 to 4 on the mRNA expression of PGC-1α, PKB and FNDC5 on the muscular strength type is shown in Table 10.

soleus muscle (SOL) = experiment: mRNA expression in soleus muscle (SOL), real-time RT-PCR; format: in vivo, ICR mice
Procedure: as §1
Total RNA was isolated from the muscle tissue (SOL) collected at the end of the test using a TRizol reagent (Thermo Fisher Scientific), and quantified using a micro-volume spectrophotometer (BioSpec-nano, Shimadzu). RNAs with OD260/280 values above 1.8 were used for experiment. After obtaining cDNA from the total RNA (2 μg) using a HyperScript™ RT master mix kit (GeneAll Biotechnology), real-time PCR was performed using a Rotor-Gene 300 PCR kit (Corbett Research) and a Rotor-Gene™ SYBR Green kit (QIAGEN). Quantitative analysis of the gene expression was performed using the Rotor-Gene 6000 Series System Software program (Corbett Research).
Muscle can be classified into slow muscle and fast muscle depending on the physiological rate of contraction. […] Therefore, the effect of endurance exercise training and the administration of the test substances on the expression of antioxidant-related genes (SOD2, GPx1, UCP2, UCP3), LDH-related genes (ERRα, LDH B, MCT1), mitochondrial synthesis-related genes (Tfam, CPT-1β, mtDNA, NRF1) and energy metabolism-related genes (PGC-1α, GYS, PPARγ, PPARδ) in the soleus muscle, which is a slow muscle, was investigated.

[2] = system: PGC1α, AMPK, p38, Nrf2 in gastrocnemius muscle (GA); experiment: Western blot of proteins associated with PGC-1α activation in gastrocnemius muscle (GA); format: in vivo, ICR mice
[3] = treadmill exercise, 7 mg/kg BW (Cr 75 mg/kg BW)
[4] = SOL muscle, treadmill exercise, 7 mg/kg BW (Cr 75 mg/kg BW), G1 = 1.00
[5] = GA muscle, treadmill exercise, 7 mg/kg BW (Cr 75 mg/kg BW), G1 = 1.00
[6] = SOL muscle, non-exercise, 7 mg/kg BW, G1 = 1.00
[7] = GA muscle, non-exercise, 7 mg/kg BW, G1 = 1.00

CN(CC(=O)O)C(=N)N.O [Cr, Creatine monohydrate, reference compound]
Relative weight of extensor digitorum longus muscle (EDL) (ICR mice; [3]): 0.059 ± 0.004 g/100 g body weight
Relative weight of gastrocnemius muscle (GA) (ICR mice; [3]): 1.078 ± 0.028^ g/100 g body weight
Relative weight of quadriceps femoris muscle (QF) (ICR mice; [3]): 0.873 g/100 g body weight
Relative weight of soleus muscle (SOL) (ICR mice; [3]): 0.061 g/100 g body weight
Weight of extensor digitorum longus muscle (EDL) (ICR mice; [3]): 0.022 ± 0.001 g
Weight of gastrocnemius muscle (GA) (ICR mice; [3]): 0.409 ± 0.012 g
Weight of quadriceps femoris muscle (QF) (ICR mice; [3]): 0.330 g
Weight of soleus muscle (SOL) (ICR mice; [3]): 0.023 g
mRNA expression FNDC5 [1]: 1.83 ± 0.47
mRNA expression MHC1 [1]: 4.50 ± 1.43
mRNA expression MHC2A [1]: 1.74 ± 0.22
mRNA expression MHC2B [1]: 1.10 ± 0.10
mRNA expression MHC7 [1]: 7.87 ± 2.66
mRNA expression PGC-1α [1]: 1.54 ± 1.10
mRNA expression PKB [1]: 2.18 ± 0.51
mRNA expression CPT-1β (soleus muscle (SOL); [4]): 0.95 ± 0.28^++
mRNA expression ERRα (soleus muscle (SOL); [4]): 0.58 ± 0.19^+
mRNA expression GPx1 (soleus muscle (SOL); [4]): 1.92 ± 0.29^+
mRNA expression GSY (soleus muscle (SOL); [4]): 0.92 ± 0.31
mRNA expression LDH B (soleus muscle (SOL); [4]): 0.35 ± 0.11^+
mRNA expression MCT1 (soleus muscle (SOL); [4]): 0.99 ± 0.31^++
mRNA expression NRF1 (soleus muscle (SOL); [4]): 9.17 ± 2.18
mRNA expression PGC1α (soleus muscle (SOL); [4]): 5.09 ± 1.22^+
mRNA expression PPARγ (soleus muscle (SOL); [4]): 0.29 ± 0.05
mRNA expression PPARδ (soleus muscle (SOL); [4]): 3.82 ± 0.90^++
mRNA expression SOD2 (soleus muscle (SOL); [4]): 1.52 ± 0.08^+
mRNA expression Tfam (soleus muscle (SOL); [4]): 1.34 ± 0.07^
mRNA expression UCP2 (soleus muscle (SOL); [4]): 14.96 ± 1.96^+++
mRNA expression UCP3 (soleus muscle (SOL); [4]): 0.87 ± 0.22
mRNA expression mtDNA (soleus muscle (SOL); [4]): 1.69 ± 0.20^
p-AMPK/AMPK ratio [2, 5]: 1.43 ± 0.13
p-Nrf2/Nrf2 ratio [2, 5]: 1.35 ± 0.17
p-PGC1α/PGC1α ratio [2, 5]: 2.28 ± 0.84^++
p-p38/p38 ratio [2, 5]: 1.94 ± 0.16^+

CC(C)=CCC[C@](C)(O)C1CC[C@]2(C)C1[C@H](O)CC1[C@@]3(C)C[C@@H](O)C(OC4OC(CO)C(O)C(O)C4OC4OC(CO)C(O)C(O)C4O)C(C)(C)C3CC[C@]12C (some centres unmarked) [Example 1, Gypenoside L]
Relative weight of extensor digitorum longus muscle (EDL) (ICR mice; non-exercise, 7 mg/kg BW): 0.056 ± 0.002 g/100 g body weight
Relative weight of gastrocnemius muscle (GA) (ICR mice; non-exercise, 7 mg/kg BW): 1.040 ± 0.036^ g/100 g body weight
Relative weight of quadriceps femoris muscle (QF) (ICR mice; non-exercise, 7 mg/kg BW): 0.742 g/100 g body weight
Relative weight of soleus muscle (SOL) (ICR mice; non-exercise, 7 mg/kg BW): 0.056 g/100 g body weight
Weight of extensor digitorum longus muscle (EDL) (ICR mice; non-exercise, 7 mg/kg BW): 0.021 ± 0.001 g
Weight of gastrocnemius muscle (GA) (ICR mice; non-exercise, 7 mg/kg BW): 0.392 ± 0.010 g
Weight of quadriceps femoris muscle (QF) (ICR mice; non-exercise, 7 mg/kg BW): 0.282 g
Weight of soleus muscle (SOL) (ICR mice; non-exercise, 7 mg/kg BW): 0.021 g
Relative weight of extensor digitorum longus muscle (EDL) (ICR mice; [3]): 0.056 ± 0.003 g/100 g body weight
Relative weight of gastrocnemius muscle (GA) (ICR mice; [3]): 1.122 ± 0.032^+ g/100 g body weight
Relative weight of quadriceps femoris muscle (QF) (ICR mice; [3]): 0.827 g/100 g body weight
Relative weight of soleus muscle (SOL) (ICR mice; [3]): 0.064 g/100 g body weight
Weight of extensor digitorum longus muscle (EDL) (ICR mice; [3]): 0.020 ± 0.001 g
Weight of gastrocnemius muscle (GA) (ICR mice; [3]): 0.406 ± 0.012 g
Weight of quadriceps femoris muscle (QF) (ICR mice; [3]): 0.296 g
Weight of soleus muscle (SOL) (ICR mice; [3]): 0.023 g
mRNA expression FNDC5 [1]: 2.97 ± 0.39
mRNA expression MHC1 [1]: 10.30 ± 1.75
mRNA expression MHC2A [1]: 1.54 ± 0.32
mRNA expression MHC2B [1]: 1.20 ± 0.12
mRNA expression MHC7 [1]: 1.80 ± 0.41
mRNA expression PGC-1α [1]: 11.75 ± 3.82
mRNA expression PKB [1]: 3.04 ± 0.46
mRNA expression CPT-1β (soleus muscle (SOL); 7 mg/kg): 0.86 ± 0.04^++
mRNA expression ERRα (soleus muscle (SOL); 7 mg/kg): 1.41 ± 0.22
mRNA expression GPx1 (soleus muscle (SOL); 7 mg/kg): 3.28 ± 0.36^++
mRNA expression GSY (soleus muscle (SOL); 7 mg/kg): 0.27 ± 0.06
mRNA expression LDH B (soleus muscle (SOL); 7 mg/kg): 1.26 ± 0.46
mRNA expression MCT1 (soleus muscle (SOL); 7 mg/kg): 0.56 ± 0.25^+
mRNA expression NRF1 (soleus muscle (SOL); 7 mg/kg): 29.20 ± 3.10^++
mRNA expression PGC1α (soleus muscle (SOL); 7 mg/kg): 2.73 ± 0.51
mRNA expression PPARγ (soleus muscle (SOL); 7 mg/kg): 5.82 ± 1.27^+
mRNA expression PPARδ (soleus muscle (SOL); 7 mg/kg): 2.42 ± 0.45^+
mRNA expression SOD2 (soleus muscle (SOL); 7 mg/kg): 1.47 ± 0.13^+
mRNA expression Tfam (soleus muscle (SOL); 7 mg/kg): 1.98 ± 0.42^+
mRNA expression UCP2 (soleus muscle (SOL); 7 mg/kg): 6.91 ± 1.47^++
mRNA expression UCP3 (soleus muscle (SOL); 7 mg/kg): 0.64 ± 0.10
mRNA expression CPT-1β (soleus muscle (SOL); [6]): 0.34 ± 0.02
mRNA expression ERRα (soleus muscle (SOL); [6]): 1.67 ± 0.22
mRNA expression GPx1 (soleus muscle (SOL); [6]): 0.89 ± 0.10
mRNA expression GSY (soleus muscle (SOL); [6]): 2.60 ± 0.51
mRNA expression LDH B (soleus muscle (SOL); [6]): 1.76 ± 0.49
mRNA expression MCT1 (soleus muscle (SOL); [6]): 0.41 ± 0.03
mRNA expression NRF1 (soleus muscle (SOL); [6]): 15.52 ± 2.59
mRNA expression PGC1α (soleus muscle (SOL); [6]): 0.88 ± 0.08
mRNA expression PPARγ (soleus muscle (SOL); [6]): 0.25 ± 0.00
mRNA expression PPARδ (soleus muscle (SOL); [6]): 2.87 ± 0.95
mRNA expression SOD2 (soleus muscle (SOL); [6]): 1.16 ± 0.03
mRNA expression Tfam (soleus muscle (SOL); [6]): 4.74 ± 0.32
mRNA expression UCP2 (soleus muscle (SOL); [6]): 1.23 ± 0.05
mRNA expression UCP3 (soleus muscle (SOL); [6]): 0.51 ± 0.09
mRNA expression mtDNA (soleus muscle (SOL); [6]): 1.29 ± 0.12
mRNA expression mtDNA (soleus muscle (SOL); [4]): 4.66 ± 0.64^++
p-AMPK/AMPK ratio ([2]; 7 mg/kg): 1.41 ± 0.14
p-Nrf2/Nrf2 ratio ([2]; 7 mg/kg): 1.30 ± 0.16
p-PGC1α/PGC1α ratio ([2]; 7 mg/kg): 1.98 ± 0.34^+
p-p38/p38 ratio ([2]; 7 mg/kg): 1.86 ± 0.13^+
p-AMPK/AMPK ratio [2, 7]: 1.22 ± 0.09
p-Nrf2/Nrf2 ratio [2, 7]: 1.02 ± 0.06
p-PGC1α/PGC1α ratio [2, 7]: 1.14 ± 0.07
p-p38/p38 ratio [2, 7]: 1.71 ± 0.16
